From patent US5661165A, “((4-phenyl-1,2,5-thiadiazol-3-yl)oxy)methyl ester thiocyanic acid compounds, compositions containing them and their use as antimicrobial and marine antifouling agents” (The Dow Chemical Company, priority 1996, dated 1997)
In brackets after ≈: the same amount, converted by molar mass. Read-outs that look alike come from different tables or passages of the source.

Key:
[1] = tested on: Saccharomyces cerevisiae (Sc); test: MIC against yeast/fungi (malt yeast agar); format: cell-based, Saccharomyces cerevisiae ATCC 4105; conditions: 30° C., yeast read after 48 h, read-out: Minimum Inhibitory Concentration, Sc
Experimental: (§1) The antimicrobial activity of the compounds of the present invention is set forth as the minimum inhibitory concentration (MIC) for the active compounds and is determined for nine (9) bacteria, using nutrient agar, and seven (7) yeast and fungi, using malt yeast agar. This determination is conducted using a one percent solution of the test compound prepared in a mixture of acetone and water.
(§2) Malt yeast agar is prepared by adding 3 g yeast extract and 45 g malt agar per liter of deionized water. The specific agar is dispensed in 30 mL aliquots into 25×200 mm test tubes, capped and autoclaved for 15 minutes at 115° C.
(§3) The test tubes containing the agar are cooled in a water bath until the temperature of the agar is 48° C. Then, an appropriate amount of the one percent solution of the test compound is added (except in the controls where no compound is added) to the respective test tubes so that the final concentrations are 500, 250, 100, 50, 25, 10, 5, 2.5, 1.0 and zero parts per million of the test compound in the agar, thus having a known concentration of test compound dispersed therein. The contents of the test tubes are then transferred to respective petri plates. After drying for 24 hours, the petri plates containing nutrient agar are inoculated with bacteria and those containing malt yeast agar are inoculated with yeast and fungi.
(§4) The inoculation with the yeast and fungi is accomplished as follows. Cultures of yeast and fungi are incubated for seven days on malt yeast agar at 30° C. These cultures are used to prepare suspensions by the following procedure. A suspension of each organism is prepared by adding 10 mL of sterile saline and 10 microliters of octylphenoxy polyethoxy ethanol to the agar slant of yeast or fungi. The sterile saline/octylphenoxy polyethoxy ethanol solution is then agitated with a sterile swab to suspend the microorganism grown on the slant. Each resulting suspension is diluted into sterile saline (1 part suspension to 9 parts sterile saline). Aliquots of these dilutions are placed in individual wells of Steer's Replicator and petri plates inoculated as previously described. The petri plates are incubated at 30° C. and read after 48 hours for yeast and 72 hours for fungi.
(§5) Table I lists the bacteria, yeast and fungi used in the MIC test described above along with their respective American Type Culture Collection (ATCC) identification numbers.

[2] = tested on: Psuedomonas aeruginosa (Pa); test: MIC against bacteria (nutrient agar); format: cell-based, Psuedomonas aeruginosa ATCC 10145; conditions: 30° C., 48 h, read-out: Minimum Inhibitory Concentration, Pa
Experimental: as §1
Nutrient agar is prepared at pH 6.8, representing a neutral medium, and at pH 8.2, representing an alkaline medium. The nutrient agars are prepared by adding 23 g of nutrient agar to one-liter of deionized water. In addition, the alkaline medium is prepared by adjusting a 0.04M solution of N-[tris-(hydroxymethyl)methyl]-glycine buffered deionized water with concentrated sodium hydroxide to a pH of 8.5.
as §3
The inoculation with bacteria is accomplished by using the following procedure. Twenty-four hour-cultures of each of the bacteria are prepared by incubating the respective bacteria in tubes containing nutrient broth for 24 hours at 30° C. in a shaker. Dilutions of each of the 24 hour-cultures are made so that nine separate suspensions (one for each of the nine test bacteria) are made, each containing 10^8 colony forming units (CFU) per mL of suspension of a particular bacteria. Aliquots of 0.3 mL of each of the bacterial suspensions are used to fill the individual wells of Steer's Replicator. For each microbial suspension, 0.3 mL was used to fill three wells (i.e., three wells of 0.3 mL each) so that for the nine different bacteria, 27 wells are filled. The Steer's Replicator is then used to inoculate both the neutral and alkaline pH nutrient agar petri plates.
The inoculated petri plates are incubated at 30° C. for 48 hours and then read to determine if the test compound which is incorporated into the agar prevented growth of the respective bacteria.
as §5

[3] = tested on: Klebsiella pneumoniae (Kp); test: MIC against bacteria (nutrient agar); format: cell-based, Klebsiella pneumoniae ATCC 8308; conditions: 30° C., 48 h, read-out: Minimum Inhibitory Concentration, Kp
Fusarium oxysporum (Fo) = test: MIC against yeast/fungi (malt yeast agar); format: cell-based, Fusarium oxysporum ATCC 48112; conditions: 30° C., fungi read after 72 h, read-out: Minimum Inhibitory Concentration, Fo
Experimental: as §1, §2, §3, §4, §5

Proteus vulgaris (PV) = test: MIC against bacteria (nutrient agar); format: cell-based, Proteus vulgaris ATCC 881; conditions: 30° C., 48 h, read-out: Minimum Inhibitory Concentration, Pv
Escherichia coli (Ec) = test: MIC against bacteria (nutrient agar); format: cell-based, Escherichia coli ATCC 11229; conditions: 30° C., 48 h, read-out: Minimum Inhibitory Concentration, Ec
[4] = tested on: Staphylococcus aureus (Sa); test: MIC against bacteria (nutrient agar); format: cell-based, Staphylococcus aureus ATCC 6538; conditions: 30° C., 48 h, read-out: Minimum Inhibitory Concentration, Sa
Aperigillus niger (An) = test: MIC against yeast/fungi (malt yeast agar); format: cell-based, Aperigillus niger ATCC 16404; conditions: 30° C., fungi read after 72 h, read-out: Minimum Inhibitory Concentration, An
Experimental: as §1, §2, §3, §4, §5

[5] = tested on: Psuedomonas aeruginosa (PRD-10); test: MIC against bacteria (nutrient agar); format: cell-based, Psuedomonas aeruginosa ATCC 15442; conditions: 30° C., 48 h, read-out: Minimum Inhibitory Concentration, PRD
[6] = tested on: Pencillium chrysogenum (Pc); test: MIC against yeast/fungi (malt yeast agar); format: cell-based, Pencillium chrysogenum ATCC 9480; conditions: 30° C., fungi read after 72 h, read-out: Minimum Inhibitory Concentration, Pc
Experimental: as §1, §2, §3, §4, §5

Trichoderma viride (Tv) = test: MIC against yeast/fungi (malt yeast agar); format: cell-based, Trichoderma viride ATCC 8678; conditions: 30° C., fungi read after 72 h, read-out: Minimum Inhibitory Concentration, Tv
Experimental: as §1, §2, §3, §4, §5

[7] = tested on: Aureobasidium pullulan (Ap); test: MIC against yeast/fungi (malt yeast agar); format: cell-based, Aureobasidium pullulan ATCC 16622; conditions: 30° C., yeast 48 h / fungi 72 h, read-out: Minimum Inhibitory Concentration, Ap
Experimental: as §1, §2, §3, §4, §5

Bacillus subtilis (Bs) = test: MIC against bacteria (nutrient agar); format: cell-based, Bacillus subtilis ATCC 8473; conditions: 30° C., 48 h, read-out: Minimum Inhibitory Concentration, Bs
[8] = tested on: Enterobacter aerogenes (Ea); test: MIC against bacteria (nutrient agar); format: cell-based, Enterobacter aerogenes ATCC 13048; conditions: Klebsiella aerogenes, 30° C., 48 h, read-out: Minimum Inhibitory Concentration, Ea
[9] = tested on: Salmonella choleraesuis (Sc); test: MIC against bacteria (nutrient agar); format: cell-based, Salmonella choleraesuis ATCC 10708; conditions: Salmonella enterica, 30° C., 48 h, read-out: Minimum Inhibitory Concentration, Sc
Candida albicans (Ca) = test: MIC against yeast/fungi (malt yeast agar); format: cell-based, Candida albicans ATCC 10231; conditions: 30° C., yeast read after 48 h, read-out: Minimum Inhibitory Concentration, Ca
Experimental: as §1, §2, §3, §4, §5

SMILES	MIC [1] [µg/mL]	MIC ([2]; pH 6.8, nutrient agar) [µg/mL]	MIC ([2]; pH 8.2, nutrient agar) [µg/mL]	MIC ([3]; pH 6.8, nutrient agar) [µg/mL]	MIC ([3]; pH 8.2, nutrient agar) [µg/mL]	MIC (Fusarium oxysporum (Fo)) [µg/mL]	MIC (Proteus vulgaris (PV); pH 6.8, nutrient agar) [µg/mL]	MIC (Proteus vulgaris (PV); pH 8.2, nutrient agar) [µg/mL]	MIC (Escherichia coli (Ec); pH 6.8, nutrient agar) [µg/mL]	MIC (Escherichia coli (Ec); pH 8.2, nutrient agar) [µg/mL]	MIC ([4]; pH 6.8, nutrient agar) [µg/mL]	MIC ([4]; pH 8.2, nutrient agar) [µg/mL]	MIC (Aperigillus niger (An)) [µg/mL]	MIC ([5]; pH 6.8, nutrient agar) [µg/mL]	MIC ([5]; pH 8.2, nutrient agar) [µg/mL]	MIC [6] [µg/mL]	MIC (Trichoderma viride (Tv)) [µg/mL]	MIC [7] [µg/mL]	MIC (Bacillus subtilis (Bs); pH 6.8, nutrient agar) [µg/mL]	MIC (Bacillus subtilis (Bs); pH 8.2, nutrient agar) [µg/mL]	further results
N#CSCOc1nsnc1-c1ccc(F)cc1 [IV, ((4(4-Fluorophenyl)-1,2,5-thiadiazol-3-yl)oxy)methyl ester thiocyanic acid]	2.5 (≈ 9.35 µM)	> 500	> 500	500 (≈ 1870 µM)	500 (≈ 1870 µM)	5 (≈ 18.7 µM)	> 500	500 (≈ 1870 µM)	500 (≈ 1870 µM)	> 500	< 10	25 (≈ 93.5 µM)	2.5 (≈ 9.35 µM)	> 500	> 500	< 1	500 (≈ 1870 µM)	2.5 (≈ 9.35 µM)	< 10	< 10	MIC ([8]; pH 6.8, nutrient agar): > 500 µg/mL; MIC ([8]; pH 8.2, nutrient agar): 500 µg/mL (≈ 1870 µM); MIC ([9]; pH 6.8, nutrient agar): 500 µg/mL (≈ 1870 µM); MIC ([9]; pH 8.2, nutrient agar): > 500 µg/mL; MIC (Candida albicans (Ca)): 5 µg/mL (≈ 18.7 µM)
N#CSCOc1nsnc1-c1cccc(F)c1 [III, ((4(3Fluorophenyl)-1,2,5-thiadiazol-3-yl)oxy)methyl ester thiocyanic acid]	< 1	> 500	> 500	500 (≈ 1870 µM)	500 (≈ 1870 µM)	100 (≈ 374 µM)	> 500	500 (≈ 1870 µM)	500 (≈ 1870 µM)	> 500	< 10	25 (≈ 93.5 µM)	< 1	> 500	> 500	< 1	500 (≈ 1870 µM)	< 1	< 10	< 10	MIC ([8]; pH 6.8, nutrient agar): > 500 µg/mL; MIC ([8]; pH 8.2, nutrient agar): 500 µg/mL (≈ 1870 µM); MIC ([9]; pH 6.8, nutrient agar): 500 µg/mL (≈ 1870 µM); MIC ([9]; pH 8.2, nutrient agar): > 500 µg/mL; MIC (Candida albicans (Ca)): 5 µg/mL (≈ 18.7 µM)
